Measured values: article PMC4581723, “Evaluation of In Vitro Activity of the Class I PI3K Inhibitor Buparlisib (BKM120) in Pediatric Bone and Soft Tissue Sarcomas” (PLoS ONE, 2015)
Like-named read-outs stand apart in the source and are kept apart here.

How the values were obtained:
PI3K = tested on: PI3K; set-up: method as in PMID 22188813; conditions: cited from earlier work
SJCRH30 = test: Cell viability assay (MTT), 72 h; assay type: cell-based; conditions: SJCRH30 (RMS), PIK3CA WT, read-out: Buparlisib cell viability IC50
A204 = test: Cell viability assay (MTT), 72 h; assay type: cell-based; conditions: Homo sapiens, A204 (RMS), PIK3CA WT, read-out: Buparlisib cell viability IC50
TC-32 = test: Cell viability assay (MTT), 72 h; assay type: cell-based; conditions: Homo sapiens, TC-32 (ES), PIK3CA WT, read-out: Buparlisib cell viability IC50
[1] = tested on: pediatric sarcoma cell lines; test: Cell viability assay (MTT), panel of sarcoma cell lines; assay type: cell-based
SJSA = test: Cell viability assay (MTT), 72 h; assay type: cell-based; conditions: SJSA (OS), PIK3CA WT, read-out: Buparlisib cell viability IC50
MCF-7 = test: Cell viability assay (MTT), 72 h; conditions: read-out: Buparlisib cell viability IC50, MCF-7 (breast), PIK3CA E545K
Experimental: Cells were seeded in 96-well plates and drugs were added after overnight incubation, with each treatment condition performed in triplicate. After drug treatment, 10 μl of 5 mg/ml MTT (3-(4,5-dimethylthiazolyl-2)-2, 5-diphenyltetrazolium bromide) in PBS was added to cells and allowed to incubate for 2–4 hours at 37°C. […] Plate absorbance was read at 595 nm using a Bio-rad microplate reader. Percent viability was calculated by normalizing absorbance values to those from cells grown in media without drug after background subtraction. IC50 values were calculated by fitting dose-response curves to a four-parameter, variable slope sigmoid dose-response model (Prism Software, GraphPad).

cleaved PARP = test: Immunoblot of PARP cleavage (apoptosis); assay type: cell-based
Text: The primary antibodies used for these studies were rabbit anti-PTEN, rabbit anti-phospho-Akt (Ser473), rabbit anti-phospho-Akt (Thr308), mouse anti-Akt (pan), rabbit anti-phospho-p44/42 MAPK (Erk1/2) (T202/[…] on Erk1, […]/[…] on Erk2), mouse anti-p44/42 MAPK (Erk1/2), mouse anti-phospho-p70 S6 Kinase (Thr389), rabbit anti-p70 S6 Kinase, rabbit anti-phospho-4E-BP1 (Thr37/46), rabbit anti-4E-BP1, rabbit anti-STAT3 (Y705), mouse anti-STAT3, and rabbit anti-cleaved PARP from Cell Signaling Technology; and mouse anti-β-actin from Sigma. Secondary antibodies conjugated to HRP were sheep anti-mouse IgG from GE Healthcare and goat anti-rabbit IgG from Santa Cruz Biotechnology. Secondary antibodies conjugated to infrared dyes were IRDye 800CW goat anti-mouse IgG and IRDye 680RD goat anti-rabbit IgG from LI-COR Biosciences. Fluorescent westerns were imaged using the Odyssey Infrared Imaging System (LI-COR Biosciences). Signals were quantified by measuring the integrated intensity values of each band using Odyssey software (LI-COR Biosciences). […] This occurs as a result of the ability of buparlisib to inhibit tubulin polymerization at higher concentrations.

RD = test: Cell viability assay (MTT), 72 h; assay type: cell-based; conditions: Homo sapiens, RD (RMS), PIK3CA WT, read-out: Buparlisib cell viability IC50
A673 = test: Cell viability assay (MTT), 72 h; assay type: cell-based; conditions: Homo sapiens, A673 (ES), PIK3CA WT, read-out: Buparlisib cell viability IC50
phospho-p70 S6K (T389) = test: Immunoblot of signaling downstream of mTORC1; assay type: cell-based; conditions: increasing doses; one hour; compared with 4E-BP1
Experimental: (§1) Cells were incubated for approximately one hour on ice in lysis buffer (50 mM Tris pH 7.6, 0.5% NP-40, 10% glycerol, 30 mM NaCl, 1 mM EDTA) supplemented with Complete Mini EDTA-free protease inhibitor cocktail (Roche), 1 mM Na3VO4, and 1 mM NaF. […] Secondary antibodies conjugated to HRP were sheep anti-mouse IgG from GE Healthcare and goat anti-rabbit IgG from Santa Cruz Biotechnology. Secondary antibodies conjugated to infrared dyes were IRDye 800CW goat anti-mouse IgG and IRDye 680RD goat anti-rabbit IgG from LI-COR Biosciences. Fluorescent westerns were imaged using the Odyssey Infrared Imaging System (LI-COR Biosciences). Signals were quantified by measuring the integrated intensity values of each band using Odyssey software (LI-COR Biosciences).
(§2) We next evaluated the ability of buparlisib to inhibit cellular signaling downstream of PI3K. Increasing doses were added to cells and phosphorylation of signaling molecules was examined by immunoblot after one hour of treatment (Fig 2A). […] Phospho-Akt levels were normalized to levels of total Akt and fit to dose-response curves to calculate the half maximal inhibitory concentration (IC50) (Fig 2B).
(§3) Each data point represents the average of at least three independent experiments.

phospho-4E-BP1 (T37/46) = test: Immunoblot of signaling downstream of mTORC1; assay type: cell-based
Experimental: as §1, §2, §3

6647 = test: Cell viability assay (MTT), 72 h; assay type: cell-based; conditions: 6647 (ES), PIK3CA WT, read-out: Buparlisib cell viability IC50
phospho-Akt (S473) [2] = test: Immunoblot (quantitative) of Akt phosphorylation; assay type: cell-based; conditions: for IC50: 1 h treatment
Experimental: as §1, §2, §3

SKES = test: Cell viability assay (MTT), 72 h; assay type: cell-based; conditions: SKES (ES), PIK3CA WT, read-out: Buparlisib cell viability IC50
KHOS = test: Cell viability assay (MTT), 72 h; assay type: cell-based; conditions: KHOS (OS), PIK3CA WT, read-out: Buparlisib cell viability IC50
MNNG = test: Cell viability assay (MTT), 72 h; assay type: cell-based; conditions: MNNG (OS), read-out: Buparlisib cell viability IC50
KHOS 240S = test: Cell viability assay (MTT), 72 h; assay type: cell-based; conditions: KHOS 240S (OS), read-out: Buparlisib cell viability IC50
phospho-Akt (S473) [3] = test: Immunoblot (quantitative) of Akt phosphorylation; assay type: cell-based

Nc1cc(C(F)(F)F)c(-c2cc(N3CCOCC3)nc(N3CCOCC3)n2)cn1 [Buparlisib]
specificity to PI3K versus other protein kinases (PI3K): at least 50 fold
IC50 (SJCRH30): 1000 nM
IC50 (A204): 526 nM
IC50 (TC-32): 972 nM
IC50 ([1]; ES and RMS cell lines in general, 72 h, read-out: cell viability IC50): ~1000 nM
concentrations at which synergistic effects were observed ([1]; buparlisib concentration in combination therapy): under 1 μM
combination effect on cell viability ([1]; combined with rapamycin, four cell lines (TC-32, A673, RD, A4573), 72 h): Synergy
combination effect on cell viability ([1]; combined with trametinib, cell lines with (A673, RD) and without (TC-32, A4573) MAPK pathway mutations, 72 h): Synergistic effects were only observed in cell lines that contained MAPK pathway mutations
combination effect on cell viability ([1]; in combination with NVP-AEW541, ES and RMS cell lines, 72 h): Synergy
combination effect on cell viability ([1]; in combination with NVP-AEW541, OS cell lines (MNNG), 72 h): additive effects
IC50 ([1]; median over sarcoma cell lines, 72 h, read-out: median IC50 value, cellular proliferation): 1100 nM
combination effect on cell viability ([1]; sequential treatment doxorubicin (4 h) then buparlisib (72 h), ratio 20:3, ES and OS cell lines): additive
IC50 (SJSA): 1450 nM
IC50 (MCF-7; Homo sapiens, MCF7, 72 h): 173 nM
IC50 (MCF-7): 173 nM
concentrations resulting in increased PARP cleavage (apoptosis) (cleaved PARP; 24 hours of drug treatment, sarcoma cell lines): greater than 1.0 μM
induction of apoptosis (PARP cleavage) (cleaved PARP; ES cell lines, 24 h): potent induction of apoptosis
induction of apoptosis (PARP cleavage) (cleaved PARP; OS and RMS cell lines, 24 h): modest
apoptosis as measured by PARP cleavage (cleaved PARP; combination with NVP-AEW541, A4573 cells, all dose levels, 24 hours): increased apoptosis
apoptosis (PARP cleavage) (cleaved PARP; combination with rapamycin, A4573 cells, 24 h): did not increase apoptosis
apoptosis as measured by PARP cleavage compared to buparlisib alone (cleaved PARP; combined with trametinib, A673 cells, 24 h): no increase in apoptosis
IC50 (RD): 1070 nM
IC50 (A673): 1780 nM
Phosphorylation of S6K (phospho-p70 S6K (T389)): more potently inhibited
Inhibition of phospho-4E-BP1 (phospho-4E-BP1 (T37/46); increasing doses, one hour): only observed at high buparlisib concentrations
phosphorylation of 4E-BP1 (phospho-4E-BP1 (T37/46); treatment with both buparlisib and rapamycin, A4573 cells): more potently suppressed
IC50 6647: 1010 nM
IC50 (phospho-Akt (S473) [2]; 1 h, 6647 (ES), phospho-Akt S473 normalized to total Akt, read-out: Buparlisib Akt phosphorylation IC50): 568 nM
IC50 (phospho-Akt (S473) [2]; 1 h, HOS (OS), phospho-Akt S473 normalized to total Akt, read-out: Buparlisib Akt phosphorylation IC50): 222 nM
IC50 (phospho-Akt (S473) [2]; 1 h, KHOS (OS), phospho-Akt S473 normalized to total Akt, read-out: Buparlisib Akt phosphorylation IC50): 109 nM
IC50 (phospho-Akt (S473) [2]; 1 h, MNNG (OS), phospho-Akt S473 normalized to total Akt, read-out: Buparlisib Akt phosphorylation IC50): 296 nM
IC50 (phospho-Akt (S473) [2]; 1 h, RD (RMS), phospho-Akt S473 normalized to total Akt, read-out: Buparlisib Akt phosphorylation IC50): 166 nM
IC50 (phospho-Akt (S473) [2]; 1 h, SJCRH30 (RMS), phospho-Akt S473 normalized to total Akt, read-out: Buparlisib Akt phosphorylation IC50): 200 nM
IC50 (phospho-Akt (S473) [2]; 1 h, TC-174 (ES), phospho-Akt S473 normalized to total Akt, read-out: Buparlisib Akt phosphorylation IC50): 313 nM
IC50 (phospho-Akt (S473) [2]; 1 h, range over the cell lines tested, largest values in cell lines that lack PTEN expression, read-out: phospho-Akt (S473) IC50, range over cell lines): 64 to 916 nM
IC50 (phospho-Akt (S473) [2]; A4573, 1 h, A4573 (ES), phospho-Akt S473 normalized to total Akt, read-out: Buparlisib Akt phosphorylation IC50): 916 nM
IC50 (phospho-Akt (S473) [2]; Homo sapiens, A204, 1 h, A204 (RMS), phospho-Akt S473 normalized to total Akt, read-out: Buparlisib Akt phosphorylation IC50): 63.7 nM
IC50 (phospho-Akt (S473) [2]; Homo sapiens, MCF7, 1 h, MCF-7 (breast), PIK3CA E545K, phospho-Akt S473 normalized to total Akt, read-out: Buparlisib Akt phosphorylation IC50): 251 nM
IC50 (phospho-Akt (S473) [2]; Homo sapiens, TC-32, 1 h, TC-32 (ES), phospho-Akt S473 normalized to total Akt, read-out: Buparlisib Akt phosphorylation IC50): 280 nM
IC50 (phospho-Akt (S473) [2]; KHOS-240S, 1 h, KHOS 240S (OS), phospho-Akt S473 normalized to total Akt, read-out: Buparlisib Akt phosphorylation IC50): 198 nM
rapamycin-mediated Akt activation (phospho-Akt (S473) [2]; buparlisib added to rapamycin, A4573 cells): reduced rapamycin-mediated Akt activation
Phosphorylation of Akt at serine 473 and threonine 308 (phospho-Akt (S473) [2]; increasing doses, one hour of treatment, TC-32, KHOS, RD): inhibited
IC50 (SKES): 822 nM
IC50 (KHOS): 1570 nM
IC50 (MNNG): 1600 nM
IC50 (KHOS 240S): 1170 nM
phospho-Akt levels compared to each drug alone (phospho-Akt (S473) [3]; combination with NVP-AEW541, A4573 cells, one hour of treatment): reduced phospho-Akt levels
time to maximum inhibition of Akt (phospho-Akt (S473) [3]; time course 5 min to 24 h, 1 μM (3 μM in A4573)): approximately one
